Results: ChEMBL document CHEMBL1127925, “Synthesis and in vitro antibacterial activity of new semi-synthetic noviosylcoumarin antibiotics: chemical modification at the C-3 ester” (1994)
In brackets after ≈: the same amount, converted by molar mass.

How the values were obtained:
Assay type in all cases: functional
[1] = tested on: Staphylococcus epidermidis; test: In vitro antibacterial activity against Staphylococcus epidermidis A25441 was determined
Staphylococcus aureus [2] = test: In vitro antibacterial activity against Staphylococcus aureus A9537 was determined
Staphylococcus aureus [3] = test: In vitro antibacterial activity against Staphylococcus aureus A20700 was determined

Structure (SMILES) | MIC [1] | MIC (Staphylococcus aureus [2]) | MIC (Staphylococcus aureus [3])
COC1C(OC(=O)c2cccn2C)C(O)C(Oc2ccc3c(O)c(NC(=O)c4ccccc4)c(=O)oc3c2C)OC1(C)C (stereo not drawn) | 8 µg/mL (≈ 13.5 µM) | 2 µg/mL (≈ 3.37 µM) | 8 µg/mL (≈ 13.5 µM)
COC1C(OC(=O)c2c(C)ncn2Cc2ccccc2)C(O)C(Oc2ccc3c(O)c(NC(=O)c4ccccc4)c(=O)oc3c2C)OC1(C)C (stereo not drawn) | 2 µg/mL (≈ 2.93 µM) | 8 µg/mL (≈ 11.7 µM) | 4 µg/mL (≈ 5.85 µM)
COC1C(OC(=O)c2ccco2)C(O)C(Oc2ccc3c(O)c(NC(=O)c4ccccc4)c(=O)oc3c2C)OC1(C)C (stereo not drawn) | 8 µg/mL (≈ 13.8 µM) | 8 µg/mL (≈ 13.8 µM) | 8 µg/mL (≈ 13.8 µM)
COC1C(OC(=O)c2ccc(C)s2)C(O)C(Oc2ccc3c(O)c(NC(=O)c4ccccc4)c(=O)oc3c2C)OC1(C)C (stereo not drawn) | 8 µg/mL (≈ 13.1 µM) | 0.03 µg/mL (≈ 0.0492 µM) | 4 µg/mL (≈ 6.56 µM)

Next, values leading:

MIC [1] | MIC (Staphylococcus aureus [2]) | MIC (Staphylococcus aureus [3]) | Structure (SMILES)
0.13 µg/mL (≈ 0.219 µM) | 0.13 µg/mL (≈ 0.219 µM) | 0.13 µg/mL (≈ 0.219 µM) | COC1C(OC(=O)c2ccc(C)[nH]2)C(O)C(Oc2ccc3c(O)c(NC(=O)c4ccccc4)c(=O)oc3c2C)OC1(C)C (stereo not drawn)
8 µg/mL | 16 µg/mL | 16 µg/mL | COC1C(OC(=O)c2[nH]cnc2C)C(O)C(Oc2ccc3c(O)c(NC(=O)c4ccccc4)c(=O)oc3c2C)OC1(C)C.Cc1ccc(S(=O)(=O)O)cc1 (stereo not drawn)
